Measured values as given in US20040006139A1, “Choline pyruvate, method for the production thereof, formulations containing choline pyruvate and the use thereof” (priority 2000, published 2004).
Like-named read-outs stand apart in the source and are kept apart here.

Key:
[1] = long-distance runners, 20 miles, intake of 2.8 g, placebo-controlled; cited from earlier work
[2] = 12 hours of storage in a refrigerator; clear, yellow liquid
[3] = person, daily supplement of 5 g
[4] = person, run over marathon distance (26.2 miles), daily supplement of 10 g
[5] = cited from earlier work
intestinal bacteria = conditions: by intestinal bacteria; cited from earlier work

C[N+](C)(C)CCO.[Cl-] [choline chloride]
performance increase [1]: approximately 3%

choline pyruvate [Example 1]
stability during storage [2]: remained stable
fat-free body mass [3]: increase
weight reduction [3]: approximately 3%
Appearance (Day 4): clear
HPLC content Parapyruvate (Day 4): 2.7%
HPLC content Pyruvate (Day 4): 35.3%
IC content Choline (Day 4): 50.6%
Appearance (Day 21): clear
HPLC content Parapyruvate (Day 21): 2.6%
HPLC content Pyruvate (Day 21): 35.8%
IC content Choline (Day 21): 50.6%
Appearance (Day 42): clear
HPLC content Parapyruvate (Day 42): 2.6%
HPLC content Pyruvate (Day 42): 35.5%
IC content Choline (Day 42): 50.7%
Appearance (Day 103): clear
HPLC content Parapyruvate (Day 103): 2.8%
HPLC content Pyruvate (Day 103): 35.9%
IC content Choline (Day 103): 50.6%
performance increase [4]: 4%

C[N+](C)(C)CCO [choline, hydroxyethyltrimethylammonium]
lowest-observed-adverse-effect level (LOAEL) ([5]; in vivo): 7.5 g/day
upper tolerable daily dose ([5]; taking into consideration an element of uncertainty): 3.5 g
oral intake converted into di- or trimethylamine (intestinal bacteria): Approximately 60%
